# Source: patent US4996227A, “3-(heteroarylalkyene)- and 3-(arylalkylene)-2,4(3H,5H)-heterocyclic diones as cancer chemotherapy drugs” (priority 1989, dated 1991)
# What was measured:
# healthy mice = assay: Toxicology testing in healthy mice: deaths / LD50; type: in vivo; conditions: i.p.
# Procedure: The purpose of this example was to determine approximate toxicity of the compound 3[(5-methyl-2-thienyl) methylene]-2,4(3H,5H)-furandione in healthy mice. The in vivo concentrations employed in the example were selected by using the in vitro results in the Human Tumor Stem Cell Assay as a guide. The compound was given to the mice by means of intra-peritoneal injection. In addition to a control group which was injected with the appropriate carrier solution without drug, three test groups with calculated plasma concentrations of 1, 10 and 100 mcg/ml (low, medium and high concentrations) were prepared. Based upon the results from Table 1, the three test groups represent low, medium and high concentrations of drug dosages. The highest concentration of 100 mcg/ml is about 10 times the predicted effective dose (in vivo) of tumoricidal activity. Each group contained eight animals. Blood was extracted from four animals in each group two days after the intraperitoneal injection and routine hematology (i.e., a hemoglobin concentration, a white blood cell count, and a neutrophil count) procedures were performed.
# Half of the animals in each group were sacrificed after one week (Day 7), and the remaining animals in each group were sacrificed after two weeks (Day 14). Routine hematology was performed at the time of sacrifice.
# [1] = system: KS62 strain stem-cell human leukemia cells; assay: Inhibition of human leukemia cell growth in vitro, as done in Example 3; type: cell-based; conditions: Homo sapiens
# Procedure: A conventionally available cell line (K562) derived from human chronic granulocytic leukemia was employed in an in vitro procedure. The leukemia cell line was cultured in a suspension of RPMI 1640 plus 10% fetal calf serum. All initial cell concentrations for the cultures were 0.65 times 10^5 cells/ml. Four separate suspension cultures were employed with the first suspension culture having no additions. The second suspension culture included 100 microliters of the solvent DMSO per 10 ml of culture (control). The third culture contained 1 ug/ml of 3[[5-methyl-2 thienyl]methylene]-2, 4 (3H, 5H) furandione and the fourth culture contained 1 ug/ml of 3[[3-methyl-2-thienyl]methylene]-2, 4 (3H, 5H) furandione. The cell concentration of each of the four cultures was determined. After three days and again after five days.
# In this example, aliquots of 1.0, 5.0 and 10.0 mcg/ml of each of the family compounds was prepared and assayed against KS62 strain stem-cell human leukemia cells in an in vitro procedure as done in Example 3 above.
# human tumor H5319 BREAST = assay: Human Tumor Stem Cell Assay, colony growth after one hour exposure; type: cell-based; conditions: 1 h
# Text: (§1) The in vitro Human Tumor Stem Cell Assay procedure described as follows has several advantages for testing the effectiveness of chemotherapy drugs such as the 3-(heteroarylalkylene)-2,4(3H,5H)-furandiones. The first advantage is that fresh tumor cells from a variety of tumor types were used rather than a small number of cell lines which have undergone severe selection pressures as they are passed in vitro. The second advantage is that only the anchorage-independent tumor cells will form colonies in soft agar so that any non-malignant cells present in the sample will not form colonies. Perhaps the most important advantage, however, is the emphasis on cells which have the ability to form colonies. These cells, which are generally called stem cells, usually comprise only a small percentage of all tumor cells. They are thought to be the most important cells for growth and distant spread of a tumor. In particular, these cells have the potential to leave the primary tumor and form new tumors at distant sites (called metastases). It is the effectiveness against these very important stem cells that the Human Tumor Stem Cell Assay measures.
# (§2) One of the 3-(heteroarylalkylene)-2,4(3H,5H)-furandione compounds, 3-[(5-methyl-2-thienyl) methylene]-2,4(3H,5H)-furandione was evaluated against a series of 10 human tumors in the in vitro Human Tumor Cell Assay, along with conventional and standard chemotherapy agents.
# (§3) In the procedure, a single cell suspension was prepared from tumors excised from patients during therapeutic or diagnostic surgical procedures. The human tumor cells were exposed to known anticancer drugs or to [(5-methyl-2-thienyl)methylene]-2,4 (3H, 5H)-furandione at a low (0.2 mcg/ml) or a high (1.0 mcg/ml) concentration for one hour. […] The suspension was washed with tissue culture medium to remove the drug.
# (§4) The suspension was then cultured in a double soft agar suspension. Control cells which had been treated identically, except for exposure to the drugs, were also cultured. After one to two weeks, both the tumor cells and the control cells formed colonies in the soft agar which were enumerated under a microscope. The number of colonies grown from the drug-treated cells was compared to the number of colonies grown from the control cells, and the percentage growth after exposure to the drug was calculated.
# (§5) The results are illustrated in Table 1, wherein the various numbers indicate the percentage of growth. For example, a small number like 6 means that the number of colonies is only 6% of the number without addition of the compound. On the other hand, a large number like 120 means that the number of colonies is 20% greater with the compound than without.
# (§6) Of the nine tumors for which the higher concentration (1.0 mcg/ml) of the furandione was used, five gave inhibition of colony growth corresponding to borderline sensitive (30-50% growth) and four gave inhibition corresponding to sensitivity (0-30% growth). Clinical drugs are normally tested at 10% of their peak plasma concentration. For the standard chemotherapy drugs shown in Table 1, the low concentration (LO) corresponds to this 10% level, and the high concentration (HI) is at 50% of the peak plasma concentration. Of the same nine tumors, only two would have been rated as sensitive or borderline sensitive to any of the other clinical drugs tested.
# [2] = system: human tumor H5325 SARCOMA; assay: as above; type: cell-based; conditions: 1 h
# Text: as §1, §2, §3, §4, §5, §6
# human tumor H5337 COLON = assay: as above; type: cell-based; conditions: 1 h
# Text: as §1, §2, §3, §4, §5, §6
# [3] = system: human tumor H5322 STOMACH; assay: as above; type: cell-based; conditions: 1 h
# Text: as §1, §2, §3, §4, §5, §6
# human tumor H5331 OVARY = assay: as above; type: cell-based; conditions: 1 h
# Text: as §1, §2, §3, §4, §5, §6
# human tumor H5330 THYMUS = assay: as above; type: cell-based; conditions: 1 h
# Text: as §1, §2, §3, §4, §5, §6
# human tumor H5349 BREAST = assay: as above; type: cell-based; conditions: 1 h
# Text: as §1, §2, §3, §4, §5, §6
# human tumor H5315 BREAST = assay: as above; type: cell-based; conditions: LO: furandione 0.2 mcg/ml; standard drugs 10% of peak plasma concentration; 1 h
# Text: as §1, §2, §3, §4, §5, §6
# human tumor H5318 OVARY = assay: as above; type: cell-based; conditions: HI: furandione 1.0 mcg/ml; standard drugs 50% of peak plasma concentration; 1 h
# Text: as §1, §2, §3, §4, §5, §6
# human tumor H5340 ** = assay: as above; type: cell-based; conditions: 1 h
# Text: as §1, §2, §3, §4, §5, §6
# [4] = HI: furandione 1.0 mcg/ml, standard drugs 50% of peak plasma concentration
# [5] = LO: furandione 0.2 mcg/ml, standard drugs 10% of peak plasma concentration
smiles,measurement,setting,value
"Cc1ccc(C=C2C(=O)COC2=O)s1 [Compound 4, 3[(5-methyl-2-thienyl)methylene]2,4(3H,5H)-furandione]",deaths due to the compound,"healthy mice; 1, 10, 100 mcg/ml calculated plasma, testing period",no deaths
same,LD50,healthy mice; as calculated plasma concentration,> 100 µg/mL
same,inhibition at 1 µg/mL,[1]; 1.0 mcg/ml,32%
same,inhibition at 5 µg/mL,[1]; 5.0 mcg/ml,97%
same,inhibition at 10 µg/mL,[1]; 10.0 mcg/ml,100%
same,percentage of growth (colonies vs control),human tumor H5319 BREAST; [4],6%
same,percentage of growth (colonies vs control),human tumor H5319 BREAST; [5],210%
same,percentage of growth (colonies vs control),[2]; [4],22%
same,percentage of growth (colonies vs control),[2]; [5],44%
same,percentage of growth (colonies vs control),human tumor H5337 COLON; [4],36%
same,percentage of growth (colonies vs control),human tumor H5337 COLON; [5],58%
same,percentage of growth (colonies vs control),[3]; [4],36%
same,percentage of growth (colonies vs control),[3]; [5],68%
same,percentage of growth (colonies vs control),human tumor H5331 OVARY; [4],48%
same,percentage of growth (colonies vs control),human tumor H5331 OVARY; [5],64%
same,percentage of growth (colonies vs control),human tumor H5330 THYMUS; [4],38%
same,percentage of growth (colonies vs control),human tumor H5330 THYMUS; [5],79%
same,percentage of growth (colonies vs control),human tumor H5349 BREAST; [4],9%
same,percentage of growth (colonies vs control),human tumor H5349 BREAST; [5],82%
same,percentage of growth (colonies vs control),human tumor H5315 BREAST,62%
same,percentage of growth (colonies vs control),human tumor H5318 OVARY,29%
same,percentage of growth (colonies vs control),human tumor H5340 **; [4],50%
same,percentage of growth (colonies vs control),human tumor H5340 **; [5],62%
